Converted amounts (≈) assume the structure as drawn. The source made the active and inactive calls. The rule behind the calls is not given here.

The test system of one test is Candida albicans. As to the kind of experiment: Antifungal activity against Candida albicans DSM 1665 after 24 to 48 hrs by serial dilution method. It is filed as functional.
The subject of a further test is Mucor plumbeus. As to the kind of experiment: Antifungal activity against Mucor plumbeus MUCL 49355 after 24 to 48 hrs by serial dilution method. It is filed as functional.
In another test the test system is Wickerhamomyces anomalus. In words: Antifungal activity against Pichia anomala DSM 6766 after 24 to 48 hrs by serial dilution method. It is filed as functional.
A further test has as its system Rhodotorula glutinis. In words: Antifungal activity against Rhodotorula glutinis DSM 10134 after 24 to 48 hrs by serial dilution method. It is filed as functional.
Test [1] relates to Schizosaccharomyces pombe. As to the kind of experiment: Antifungal activity against Schizosaccharomyces pombe DSM 70572 after 24 to 48 hrs by serial dilution method. It is filed as functional.
Another test relates to HUVEC. As to the kind of experiment: Cytotoxicity against HUVEC after 5 days by MTT assay. It is filed as cell-based. The settings on record: Homo sapiens, 120 h.
Another test has as its system KB 3-1. As to the kind of experiment: Cytotoxicity against human KB 3.1 cells after 5 days by MTT assay. The settings on record: KB 3-1, 120 h. It is filed as functional, cell-based. A general note: Tetrazolium assays rely on reduction of a dye to a coloured formazan, in cell work by metabolically active cells.
Test [2] concerns Chromobacterium violaceum. In words: Antibacterial activity against Chromobacterium violaceum DSM 30191 after 24 to 48 hrs by serial dilution method. It is filed as functional.
The subject of the next test is Micrococcus luteus. In words: Antibacterial activity against Micrococcus luteus DSM 1790 after 24 to 48 hrs by serial dilution method. It is filed as functional.
A further test concerns Staphylococcus aureus. In words: Antibacterial activity against Staphylococcus aureus DSM 346 after 24 to 48 hrs by serial dilution method. It is filed as functional.
The subject of the next test is Bacillus subtilis. As to the kind of experiment: Antibacterial activity against Bacillus subtilis DSM 10 after 24 to 48 hrs by serial dilution method. It is filed as functional.
Test [3] concerns Escherichia coli. In words: microbe, parasite or virus in culture. The conditions noted are these: DSM 498.
Description: (§1) Antibacterial activity against Escherichia coli DSM 498 after 24 to 48 hrs by serial dilution method
Another test concerns Pseudomonas aeruginosa. In words: Antibacterial activity against Pseudomonas aeruginosa PA14 after 24 to 48 hrs by serial dilution method. It is filed as functional.
Another test relates to L929. In words: Cytotoxicity against mouse L929 cells after 5 days by MTT assay. It is filed as cell-based. The conditions noted are these: L929, 120 h.
The test system of test [4] is Escherichia coli. The settings on record: DSM 498.
Description: as §1

Regarding NYSTATIN, the MIC was found to be 16.7 µg/mL with Candida albicans; 9.4 µg/mL in the test on Mucor plumbeus; 16.7 µg/mL against Wickerhamomyces anomalus; 66.7 µg/mL with Rhodotorula glutinis; 66.7 µg/mL in test [1].

With `C/C(=C\c1csc(C)n1)[C@@H]1C[C@@H]2O[C@]2(C)CCC[C@H](C)[C@H](O)[C@@H](C)C(=O)C(C)(C)[C@@H](O)CC(=O)O1` [PATUPILONE], the IC50 (in general, the midpoint of a concentration-inhibition curve) with HUVEC turned out to be 0.00055 µM; in the test with KB 3-1, 0.00022 µM.

With `CN(C)[C@@H]1C(O)=C(C(N)=O)C(=O)[C@@]2(O)C(O)=C3C(=O)c4c(O)cccc4[C@@](C)(O)[C@H]3[C@H](O)[C@@H]12` [OXYTETRACYCLINE], the MIC in [2] worked out at 2.1 µg/mL (≈ 4.56 µM); with Micrococcus luteus it was 8.3 µg/mL (≈ 18 µM); against Staphylococcus aureus it was 1 µg/mL (≈ 2.17 µM).

As to `O=C(O)c1cn(C2CC2)c2cc(N3CCNCC3)c(F)cc2c1=O` [CIPROFLOXACIN], the MIC against Bacillus subtilis and in the test on Escherichia coli [3] was at most 2.3 µg/mL each time.

Consider `CO[C@H]1O[C@H]2c3c(cnc(C(=O)CO)c31)C[C@H](O)[C@@H]1C3=C(C(C)C)CC[C@]3(C)CC[C@@]21C`, for which the MIC in the test on Bacillus subtilis turned out to be 9.4 µg/mL (≈ 21.3 µM); with Micrococcus luteus, 16.7 µg/mL (≈ 37.8 µM); against Staphylococcus aureus, 16.7 µg/mL (≈ 37.8 µM); in the test on Mucor plumbeus it was 150 µg/mL (≈ 340 µM); with Rhodotorula glutinis, 16.7 µg/mL (≈ 37.8 µM); in test [1], 16.7 µg/mL (≈ 37.8 µM). The MIC result (in test [2]; with Pseudomonas aeruginosa; with Candida albicans; in the test with Wickerhamomyces anomalus; in the test on Escherichia coli [4]) was “inactive” in each case. Moreover, the IC50 with HUVEC amounted to 5.9 µM; in the test on KB 3-1, 14.7 µM; in the test with L929, 16.3 µM.

Turning to `CO[C@@H]1O[C@H]2c3c(cnc(C(=O)CO)c31)C[C@H](O)[C@@H]1C3=C(C(C)C)CC[C@]3(C)CC[C@@]21C`, the MIC with Bacillus subtilis came out at 9.4 µg/mL (≈ 21.3 µM); against Micrococcus luteus it was 8.3 µg/mL (≈ 18.8 µM); in the test on Staphylococcus aureus, 8.3 µg/mL (≈ 18.8 µM); against Mucor plumbeus it was 150 µg/mL (≈ 340 µM); against Rhodotorula glutinis, 8.3 µg/mL (≈ 18.8 µM); in test [1], 8.3 µg/mL (≈ 18.8 µM). The MIC result (in test [2]; in the test on Pseudomonas aeruginosa; in the test on Candida albicans; in the test on Wickerhamomyces anomalus; in the test with Escherichia coli [4]) was “inactive” each time. For the same compound, the IC50 with HUVEC came to 6.3 µM; in the test on KB 3-1 it was 12.7 µM; in the test on L929 it was 15.4 µM.

`C/C(=C\c1csc(C)n1)[C@@H]1C[C@@H]2O[C@@H]2CCC[C@H](C)[C@H](O)[C@@H](C)C(=O)C(C)(C)[C@@H](O)CC(=O)O1` [EPOTHILONE A] had an IC50 with L929 of 0.0038 µM.

Values taken from ChEMBL document CHEMBL4000154, “Pyristriatins A and B: Pyridino-Cyathane Antibiotics from the Basidiomycete Cyathus cf. striatus” (J Nat Prod, 2016).
